The text below walks through data of patent US7572949B2, “SKN-1 and GSK-3 genes and proteins” (Immune Disease Institute, Inc., priority 2003, dated 2009).

Test [1] has as its system GCS-1::GFP expression in the intestine. The test can be described thus: Induction of GCS-1::GFP expression in the intestine by oxidative stress (transgenic worms, fluorescence microscopy). The test is classed as in vivo, C. elegans. The following applies: for percentage of animals with high intestinal GCS-1::GFP expression / percentage of animals with low intestinal GCS-1::GFP expression / percentage of animals with medium intestinal GCS-1::GFP expression: 1 mM paraquat in the agar, 20° C., 3 days, mixed L2-young adult worms. The procedure:
Transgenic strains were generated by injecting DNA into the gonad of young adult animals as described in Mello et al. (EMBO Journal 10: 3959-3970 (1991)). gcs-1::gfp transgene constructs (FIG. 3A) were injected at 50 ng/μl along with the rol-6 marker (pRF4) at 100 ng/μl. Between three and six independent extrachromosomal lines were generated and analyzed for each gcs-1::gfp construct. To investigate GCS-1::GFP expression in the skn-1(zu67) background, rol-6-marked gcs-1::gfp hermaphrodites were mated with N2 males, then their transgenic progeny were crossed with skn-1(zu67)/DnT1 hermaphrodites, which have an unc phenotype. After transgenic males were successively crossed twice with skn-1(zu67)/DnT1 hermaphrodites, unc; rol F3 hermaphrodite progeny were selected. From this population, skn-1(zu67)/DnT1; gcs-1::gfp animals were identified on the basis of their non-unc; rol progeny laying dead eggs. Two different gcs-1:gfp lines were thereby crossed into the skn-1(zu67) background and examined for GFP expression. DIC and fluorescence images were acquired with a Zeiss AxioSKOP2 microscope and AxioCam cooled color digital camera.
To investigate expression of gcs-1::gfp and mutant transgenes, worms were exposed to oxidative stress under the following conditions. For heat shock, worms cultured at 20° C. were transferred onto prewarmed seeded plates and incubated at 29° C. for 20 hours, then examined by fluorescence microscopy for GFP expression. gcs-1::gfp induction was also observed in an alternative heat treatment protocol, during which worms cultured at 20° C. were transferred onto prewarmed plates and incubated at 34° C. for 2 to 4 hours, then returned to 20° C. and examined for GFP expression hourly during a four hour recovery period. In the experiments described in Table 2, young adults were transferred to plates that contained 1 mM paraquat in the agar and maintained at 20° C. for 3 days prior to analysis. In an alternative induction protocol, worms that carried gcs-1::gfp or the mutant transgenes shown in FIG. 3A were incubated in M9 either with or without 100 mM paraquat for 30 minutes, then allowed to recover on plates for four hours.

A further test concerns SKN-1::GFP. The test can be described thus: Accumulation of SKN-1::GFP in intestinal nuclei in response to oxidative stress (skn-1::gfp transgenic worms). It is filed as in vivo, C. elegans. The procedure:
To create transgenic skn-1::gfp strains, 2.5, 10, or 50 ng/μl of transgene DNA (FIG. 5A) was injected into N2 animals at along with 100 ng/μl of pRF4 to generate extrachromosomal transgenic lines. Two different extrachromosomal arrays, Ex001 and Ex007, generated with 2.5 and 10 ng/μl of SKN-1::GFP, respectively, were integrated into the chromosome by UV irradiation (400 J/m2) to produce the insertion strains Is001 and Is007, respectively. To rescue the embryonic lethality of a skn-1 mutation, SKN-1::GFP was injected into skn-1(zu67)/DnT1 animals at 2.5 ng/μl with 100 ng/μl of the pRF4 marker. […] To analyze expression and localization of SKN-1::GFP in response to oxidative stress, skn-1::gfp transgenic worms were treated as described above for the gcs-1::gfp expression studies. […] These worms were scored for presence of SKN-1::GFP in intestinal nuclei 5 minutes later. […] To discriminate intestinal autofluorescence from SKN-1::GPP epifluorescence, a triple band emission filter set (Chroma 61000) was used in conjunction with a narrow band excitation filter (484/14 nm). This combination allowed autofluorescence to be detected as yellow/orange fluorescence deriving from a combined green and red signal, while GFP remained green. Worms that carried skn-1::gfp, gcs-1::gfp and gcs-1::gfp mutant transgenes were incubated with 50 μg/ml DiI (Molecular Probes) in M9 for 3 hours at 20° C., then transferred to fresh plates for 1 hour to destain, and examined under the fluorescence microscope. The ASI chemosensory neurons were identified by according to their intensity of DiI labeling and location relative to other DiI-labeled cells.

Test [2] concerns C. elegans pathway mediated by SKN-1. The following applies: in vivo.
Where [3] appears, read: 2 mM, immobilization for photography, during the times examined (data not shown).
The mark [4] stands for this setting: paraquat, treated as for the gcs-1::gfp studies, mixed-stage L2-young adult worms.

SMILES strings stand for the structures.

On to `c1ccc([C@H]2CN3CCSC3=N2)cc1` [Levamisole], for which the “GCS-1::GFP induction by immobilization agent” value in test [1] (setting [3]) is “did not stimulate”. Also, the “SKN-1::GFP relocalization by immobilization agent” value with SKN-1::GFP (setting [3]) was “did not stimulate”.
As to `C[S+]([O-])CCCCN=C=S` (stereo not shown) [sulforaphane], the “response of the SKN-1-mediated pathway” value in test [2] was “responds”.
Consider `C[n+]1ccc(-c2cc[n+](C)cc2)cc1` [Paraquat, paraquat (methyl viologen)], for which the “intestinal gcs-1::gfp expression, alternative induction protocol” value in test [1] (100 mM paraquat in M9 for 30 minutes, four hours recovery on plates) is “induction of intestinal gcs-1::gfp expression”. For the same compound, in test [1] (gcs-1::gfp transgene), the “percentage of animals with high intestinal GCS-1::GFP expression” value turned out to be 18.4%, the “percentage of animals with low intestinal GCS-1::GFP expression” value came out at 14.5% and the “percentage of animals with medium intestinal GCS-1::GFP expression” value is 67.1%. Moreover, in test [1] (gcsΔ2::gfp transgene), the “percentage of animals with high intestinal GCS-1::GFP expression” value was 13.1%, the “percentage of animals with low intestinal GCS-1::GFP expression” value stood at 21.3% and the “percentage of animals with medium intestinal GCS-1::GFP expression” value stood at 65.6%. Besides, the “GCS-1::GFP in the intestine and ASI neurons of skn-1 homozygotes” value in test [1] (skn-1 homozygotes, after paraquat treatment (data not shown)) is given as “absence of GCS-1::GFP”. In addition, the “SKN-1::GFP in the ASI neurons after exposure” value in the test on SKN-1::GFP (ASI neurons, after exposure to paraquat) is on record as “neither the location nor intensity of SKN-1::GFP was detectably altered”. In addition, the “SKN-1::GFP in intestinal cell nuclei after exposure” value in the test on SKN-1::GFP (in a high percentage of animals, particularly anteriorly and posteriorly, after exposure to paraquat) was “elevated levels of SKN-1::GFP”. Besides, in the test with SKN-1::GFP (setting [4]), the “percentage of animals with high SKN-1::GFP in intestinal nuclei” value is reported as 3.1%, the “percentage of animals with low SKN-1::GFP in intestinal nuclei” value was 53.1% and the “percentage of animals with medium SKN-1::GFP in intestinal nuclei” value is 43.8%.
Turning to `[N-]=[N+]=[N-]` [Sodium Azide, sodium azide], in the test with SKN-1::GFP (in vivo), the “percentage of animals with high SKN-1::GFP in intestinal nuclei” value is recorded as 55.0%, the “percentage of animals with low SKN-1::GFP in intestinal nuclei” value is listed as 0.8% and the “percentage of animals with medium SKN-1::GFP in intestinal nuclei” value is on record as 44.2%.
